The text below walks through data of ChEMBL document CHEMBL3813687, “A combined ligand- and structure-based approach for the identification of rilmenidine-derived compounds which synergize the antitumor effects of doxorubicin” (Bioorg Med Chem, 2016).

Assay [1] deals with K562. The assay can be described thus: Antiproliferative activity against human K562 cells assessed as inhibition of cell survival after 48 hrs by MTT assay. Format: functional, cell-based. To be noted: K562, 48 h. Background: Tetrazolium dyes change colour on reduction, which living cells bring about.
For assay [2], the target named is T1, Alpha-2A adrenergic receptor (Homo sapiens, UniProt P08913).
T1 sequence (P08913 whole entry): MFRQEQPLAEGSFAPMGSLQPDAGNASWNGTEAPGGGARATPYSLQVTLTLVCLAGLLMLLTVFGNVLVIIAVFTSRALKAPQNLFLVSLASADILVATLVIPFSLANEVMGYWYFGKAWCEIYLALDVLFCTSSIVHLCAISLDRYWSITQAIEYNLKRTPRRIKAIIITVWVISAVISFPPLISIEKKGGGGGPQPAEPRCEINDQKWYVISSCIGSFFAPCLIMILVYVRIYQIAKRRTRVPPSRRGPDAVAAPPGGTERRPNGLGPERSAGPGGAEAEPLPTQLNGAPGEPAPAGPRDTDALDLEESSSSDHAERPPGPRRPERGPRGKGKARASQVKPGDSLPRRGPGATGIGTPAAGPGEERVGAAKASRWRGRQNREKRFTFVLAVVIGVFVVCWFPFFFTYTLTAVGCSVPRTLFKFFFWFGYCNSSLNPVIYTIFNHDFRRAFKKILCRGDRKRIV
The assay can be described thus: Displacement of [3H]RS-79948-197 from recombinant human alpha2A adrenoreceptor expressed in CHOK1 cell membrane by scintillation counting method. Format: cell membranes, CHO-K1. The conditions noted are these: read-out: Ki(app). For orientation: Displacement assays read how much labelled ligand stays bound in the presence of the test substance.

Assay [3] has as its target T1, Alpha-2A adrenergic receptor. The assay can be described thus: Intrinsic activity at recombinant human alpha2A adrenoreceptor expressed in CHOK1 cell membrane incubated for 30 mins by [35S]GTPgammaS binding assay relative to adrenaline. It counts as cell membranes. The conditions noted are these: CHO-K1, human, 0.5 h; read-out: Intrinsic activity. (GTPγS is a poorly hydrolysed GTP analogue; its binding reports G protein activation.)

The target in assay [4] is T2, Nischarin (Rattus norvegicus, UniProt Q4G017). In words: Displacement of [125I]PIC from Imidazoline-1 receptor in rat PC12 cell membrane incubated for 30 mins by gamma counting method. Format: cell membranes, PC-12.
T2 sequence (Q4G017 whole entry): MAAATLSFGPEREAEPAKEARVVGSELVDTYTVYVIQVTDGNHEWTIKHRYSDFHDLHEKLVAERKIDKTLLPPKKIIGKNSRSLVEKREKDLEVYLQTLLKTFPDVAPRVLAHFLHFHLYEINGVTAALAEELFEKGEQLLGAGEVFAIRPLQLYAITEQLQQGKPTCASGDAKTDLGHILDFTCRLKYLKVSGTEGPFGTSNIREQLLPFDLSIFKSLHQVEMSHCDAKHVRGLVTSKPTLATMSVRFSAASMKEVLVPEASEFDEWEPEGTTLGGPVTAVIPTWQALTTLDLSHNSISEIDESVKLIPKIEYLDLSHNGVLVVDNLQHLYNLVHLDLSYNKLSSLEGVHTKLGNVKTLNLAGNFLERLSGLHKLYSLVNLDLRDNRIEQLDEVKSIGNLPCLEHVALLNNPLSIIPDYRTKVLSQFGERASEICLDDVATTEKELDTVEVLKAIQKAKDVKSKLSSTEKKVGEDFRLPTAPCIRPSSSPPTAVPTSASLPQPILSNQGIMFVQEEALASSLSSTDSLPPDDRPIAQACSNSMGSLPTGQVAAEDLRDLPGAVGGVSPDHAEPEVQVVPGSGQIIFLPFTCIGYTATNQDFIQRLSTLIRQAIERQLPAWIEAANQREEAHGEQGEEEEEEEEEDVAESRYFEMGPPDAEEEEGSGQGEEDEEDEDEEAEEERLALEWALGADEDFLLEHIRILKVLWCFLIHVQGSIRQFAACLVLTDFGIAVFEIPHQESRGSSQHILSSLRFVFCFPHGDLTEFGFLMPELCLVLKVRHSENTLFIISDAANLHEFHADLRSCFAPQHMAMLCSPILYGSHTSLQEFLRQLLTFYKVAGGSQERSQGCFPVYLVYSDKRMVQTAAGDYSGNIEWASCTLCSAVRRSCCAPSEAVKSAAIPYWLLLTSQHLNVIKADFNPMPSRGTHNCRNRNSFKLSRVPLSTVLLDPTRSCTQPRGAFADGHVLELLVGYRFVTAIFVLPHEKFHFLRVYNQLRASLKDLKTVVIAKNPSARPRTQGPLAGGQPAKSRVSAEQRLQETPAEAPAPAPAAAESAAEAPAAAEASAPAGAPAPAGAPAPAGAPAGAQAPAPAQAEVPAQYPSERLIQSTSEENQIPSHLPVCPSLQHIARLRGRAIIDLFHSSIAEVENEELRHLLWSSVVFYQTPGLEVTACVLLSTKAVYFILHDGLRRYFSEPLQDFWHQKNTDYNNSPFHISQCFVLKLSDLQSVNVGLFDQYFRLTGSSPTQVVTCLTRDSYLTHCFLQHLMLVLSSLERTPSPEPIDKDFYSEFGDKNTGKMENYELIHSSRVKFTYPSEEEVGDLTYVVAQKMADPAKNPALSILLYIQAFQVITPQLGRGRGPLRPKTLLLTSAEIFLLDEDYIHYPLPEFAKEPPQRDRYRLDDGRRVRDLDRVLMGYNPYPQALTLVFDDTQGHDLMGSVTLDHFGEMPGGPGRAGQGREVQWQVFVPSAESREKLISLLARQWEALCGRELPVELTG
In assay [5] the target is T2, Nischarin. In words: Displacement of [125I]PIC from Imidazoline-1 receptor in rat PC12 cell membrane by gamma counting method. It counts as cell membranes, PC-12.
Assay [6] can be described thus: Displacement of [3H]-clonidine from Imidazoline-1 receptor in bovine chromaffin cell membranes incubated for 40 mins in presence of RX821002. Set-up: species or system Bos taurus.
Assay [7] deals with K562. The assay can be described thus: Induction of apoptosis in human K562 cells assessed as early apoptotic cells at 300 uM after 24 hrs by Annexin V-FITC/propidium iodide staining based flow cytometry (reference value: 5%). It counts as functional.
Assay [8] deals with K562. The assay can be described thus: Induction of apoptosis in human K562 cells assessed as early apoptotic cells at 300 uM after 48 hrs by Annexin V-FITC/propidium iodide staining based flow cytometry (reference value: 5%). It counts as functional.
For assay [9], the system named is K562. The assay can be described thus: Induction of apoptosis in human K562 cells assessed as early apoptotic cells at 300 uM up to 48 hrs by Annexin V-FITC/propidium iodide staining based flow cytometry. It counts as functional, cell-based.
Assay [10] is described as follows: Displacement of [3H]-clonidine from Imidazoline-1 receptor in bovine adrenal medullary plasma membrane incubated for 40 mins in presence of RX821002. Set-up: species or system Bos taurus.
The subject of assay [11] is K562. In words: Induction of apoptosis in human K562 cells assessed as early apoptotic cells at 1 uM after 48 hrs by Annexin V-FITC/propidium iodide staining based flow cytometry (reference value: 5%). It counts as functional.
In assay [12] the test system is K562. In words: Induction of apoptosis in human K562 cells assessed as late apoptotic cells at 1 uM after 48 hrs by Annexin V-FITC/propidium iodide staining based flow cytometry (reference value: 1%). Format: functional.
The subject of assay [13] is K562. In words: Induction of apoptosis in human K562 cells assessed as necrotic cells at 1 uM after 48 hrs by Annexin V-FITC/propidium iodide staining based flow cytometry (reference value: 1%). It counts as functional.
Assay [14] concerns K562. The assay can be described thus: Induction of apoptosis in human K562 cells assessed as early apoptotic cells at 1 uM after 48 hrs by Annexin V-FITC/propidium iodide staining based flow cytometry relative to control. It counts as functional.
Assay [15] deals with K562. In words: Cell cycle arrest in human K562 cells assessed as increase in G2/M cell population after 48 hrs by propidium iodide staining based flow cytometry. Format: functional.
The test system of assay [16] is K562. In words: Induction of apoptosis in human K562 cells assessed as early apoptotic cells at 50 uM after 48 hrs by Annexin V-FITC/propidium iodide staining based flow cytometry (reference value: 5%). It counts as functional.
For assay [17], the system named is K562. The assay can be described thus: Potentiation of doxorubicin-induced apoptosis in human K562 cells assessed as early apoptotic cells at 50 uM after 48 hrs by Annexin V-FITC/propidium iodide staining based flow cytometry relative to control. Format: functional.
For assay [18], the target named is T1, Alpha-2A adrenergic receptor.
Description: Agonist activity at recombinant human alpha2A adrenoreceptor expressed in CHOK1 cell membrane incubated for 30 mins by [35S]GTPgammaS binding assay

Activity calls are given as the source filed them. No cut-off for these calls is given here. Some results are limits rather than exact numbers.

Turning to `CCCCCn1c(C)cc(NCc2ccc(Cl)cc2)cc1=O`, the IC50 with K562 [1] was above 300 µM. Further, the Ki in assay [2] stood at 80 µM. For the same compound, in assay [3], the Emax was determined as 0%.
Regarding `Clc1cc(I)cc(Cl)c1N=C1NCCN1` [PI-CLONIDINE], on Nischarin [4], the Ki is 0.000794 µM.
As for `Clc1cccc(Cl)c1N=C1NCCN1` [CLONIDINE], on Nischarin [4], the Ki was 0.126 µM.
Turning to `c1ccc([C@H]2C[C@@H]2C2=NCCN2)cc1`, on Nischarin [5], the Ki was 0.347 µM.
Regarding `Cc1cccc([C@H](C)c2c[nH]cn2)c1C` [DEXMEDETOMIDINE], the Emax in [3] was 63%.
Regarding `Clc1cccc2c1CN(NC1=NCCN1)C2`, on Nischarin [4], the Ki was 0.0282 µM.
For the compound `CCC1CCC(NC(C2CC2)C2CC2)=N1` (stereo not drawn), in assay [6], the pKi is recorded as 6.77.
For the compound `COc1nc(C)nc(Cl)c1NC1=NCCN1` [MOXONIDINE], the results for the Activity with K562 [7] and in the assay with K562 [8] were 2.31% and 2.68%, respectively.
For `CCCCCNc1cc(C)n(Cc2ccccc2)c(=O)c1`, in the assay on K562 [1], the IC50 is 140 µM. The Ki in assay [2] was 110 µM. Also, the Emax in assay [3] was -8%.
Turning to `CCC1(C2=NCCN2)Cc2ccccc2O1` (stereo not drawn) [EFAROXAN], the IC50 with K562 [1] was above 300 µM. In [3], the Emax was -13%. The outcome in the assay with K562 [9] was inactive.
Consider `CC1CCC(NC(C2CC2)C2CC2)=N1` (stereo not drawn), for which the pKi in assay [6] is given as 5.8.
Consider `COC1=CCCC=C1C1=NCCN1`, for which the negative-log Ki (pKi) in assay [10] worked out at 8.53.
`C(=C\c1ccccc1)/C1=NCCN1` [TRACIZOLINE] gave a Ki on Nischarin [5] of 0.0191 µM.
With `Cc1cc(NCCC(C)C)cc(=O)n1Cc1ccccc1`, the half-inhibitory concentration (IC50) with K562 [1] was above 300 µM. Besides, the Ki in assay [2] was determined as 110 µM. Moreover, in assay [3], the Emax was -2%.
Regarding `CCC1(c2cnc[nH]2)Cc2ccccc2C1` [ATIPAMEZOLE], the Ki in [2] was determined as 0.0012 µM.
Turning to `NC1=NCC(COc2ccccc2Br)O1` (stereo not drawn), the pKi in [10] is 8.19.
With `Cc1cc(NCc2ccccc2)cc(=O)n1CCC(C)C`, the IC50 in the assay with K562 [1] is above 300 µM. In assay [2], the Ki was 27 µM. Moreover, the Emax in assay [3] is -10%.
In the case of `CC1CCC(=Nc2ccc(I)cc2Cl)N1` (stereo not drawn), the Ki at Nischarin [4] is 0.000178 µM.
For the compound `CN1CCCCC1CCn1cnc2ccccc21` (stereo not drawn), the IC50 in the assay with K562 [1] was above 300 µM. Also, the Ki in assay [2] turned out to be 11 µM. Also, the Emax in assay [3] is -6%.
As to `Cc1cc(NCc2ccc(Cl)cc2)cc(=O)n1CCC(C)C`, the IC50 in the assay on K562 [1] was 224 µM. In addition, the Ki in assay [2] is 99 µM. For the same compound, the Emax in assay [3] is -1%.
On to `CCC(NC1=NCCC1)C1CC1` (stereo not drawn), for which the pKi in assay [6] was determined as 6.29.
Compound `CC(Oc1c(Cl)cccc1Cl)C1=NCCN1` (stereo not drawn) [LOFEXIDINE] had a Ki at Nischarin [4] of 0.00562 µM.
As to `Cc1cc(NCCC(C)C)cc(=O)n1CCC(C)C`, the IC50 in the assay on K562 [1] was 128 µM. Besides, the Ki in [2] came to 52 µM. The Emax in assay [3] is -17%.
For the compound `COc1cccc2c1C(=O)c1c(O)c3c(c(O)c1C2=O)C[C@@](O)(C(=O)CO)C[C@@H]3O[C@H]1C[C@H](N)[C@H](O)[C@H](C)O1` [DOXORUBICIN], the IC50 in the assay with K562 [1] amounted to 1 µM. Further, the Activity is recorded as 20% with K562 [11], 0% in the assay with K562 [12], 0% in the assay with K562 [13] and 10% with K562 [14]. In the assay on K562 [15], the outcome was Active.
Regarding `CC1CCN=C1NC(C1CC1)C1CC1` (stereo not drawn), the pKi in [6] stood at 4.
Consider `CCCCCNc1cc(C)n(CCCCC)c(=O)c1`, for which the IC50 with K562 [1] stood at 115 µM. For the same compound, the Ki in assay [2] worked out at 62 µM. For the same compound, the Emax in assay [3] is -18%.
As for `Cc1cc(NCc2ccc(C(F)(F)F)cc2)cc(=O)n1CC(C)C`, the IC50 in the assay on K562 [1] came to 222 µM. Also, the Ki in assay [2] is 58 µM. For the same compound, the Emax in [3] is -6%.
In the case of `CCCCCn1c(C)cc(NCc2ccccc2)cc1=O`, the IC50 with K562 [1] was above 300 µM. Moreover, in assay [2], the Ki was found to be 41 µM. Also, the Emax in assay [3] was -12%.
Regarding `C1CCC2N=C(NC(C3CC3)C3CC3)CC2C1` (stereo not drawn), in assay [6], the negative-log Ki (pKi) is recorded as 4.
For the compound `C1COC(NC(C2CC2)C2CC2)=N1` [RILMENIDINE], the Activity is recorded as 20% in the assay with K562 [16] and 44% with K562 [17]. The IC50 in the assay on K562 [1] amounted to 65 µM. Also, the Ki in assay [2] was 0.3 µM; on Nischarin [4] it was 0.0126 µM. Moreover, the Emax in assay [3] was determined as 54%. This compound also gave a concentration giving a half-maximal response (EC50) in assay [18] of 0.178 µM.
In the case of `N#CSc1ccc2oc(C3=NCCN3)cc2c1`, the pKi in [6] is on record as 5.6.
On Nischarin [5], `c1ccc2c(c1)OCC(C1=NCCN1)O2` (stereo not drawn) [IDAZOXAN] gave a Ki of 1.26 µM.
With `CC(CC1=NCCN1)c1ccccc1` (stereo not drawn), the Ki on Nischarin [5] was 7.24 µM.
For the compound `Cc1ccc(F)c(C2=NCCN2)c1`, in [10], the pKi was 8.28.

A word on the IC50: it is the concentration at which inhibition is half-maximal. A word on the pKi: it is the Ki on a negative log10 scale, so that one unit is a factor of ten. As a reminder, the EC50 is the concentration at which the effect is half-maximal. Low readings indicate higher potency in that assay, high ones lower potency in that assay.
